Assay results: patent US20170096504A1, “METHOD FOR PRODUCING FLUOROPOLYMER AQUEOUS DISPERSION LIQUID” (DAIKIN INDUSTRIES, LTD., priority 2014, published 2017)

How the values were obtained:
[1] = Critical micelle concentration by surface tension measurement; format: physicochemical
Description: The critical micelle concentration may be determined by measuring the surface tension. The surface tension may be measured using a surface tensiometer CBVP-A3 (Kyowa Interface Science Co., Ltd.), for example.
The critical micelle concentration may be determined in accordance with “Environmental Science & Technology (2011)”, 45(19), 8120-8128 and the literature cited therein.

[2] = Log POW (1-octanol/water partition coefficient) by HPLC calibration
Description: Log POW is a 1-octanol/water partition coefficient which is represented by Log P (wherein P is the ratio between the concentration of the fluorosurfactant in octanol and that in water in a phase-separated octanol/water (1:1) liquid mixture containing the fluorosurfactant).
Log POW is determined as follows. Specifically, HPLC is performed on standard substances (heptanoic acid, octanoic acid, nonanoic acid, and decanoic acid) each having a known octanol/water partition coefficient using TOSOH ODS-120T (φ4.6 mm×250 mm) as a column and acetonitrile/0.6 mass % HClO4 aqueous solution (=1/1 (vol/vol %)) as an eluent at a flow rate of 1.0 ml/min, a sample amount of 300 μL, and a column temperature of 40° C.; with a detection light of UV 210 nm. For each standard substance, a calibration curve is drawn with respect to the elution time and the known octanol/water partition coefficient. Based on this calibration curve, Log POW is calculated from the elution time of the sample liquid in HPLC.

Structure (SMILES) | critical micelle concentration [1] | chromatographic logP [2]
N.O=C(O)C(F)(OC(F)(F)C(F)(F)C(F)(F)F)C(F)(F)F (centres unmarked) [C3F7OCF(CF3)COONH4] | 48 g/L | 
O=S(=O)(O)CCC(F)(F)C(F)(F)C(F)(F)C(F)(F)C(F)(F)C(F)(F)F [C6F13(CH2)2SO3H] | 1 g/L | 
N.O=C(O)C(F)(F)C(F)(F)C(F)(F)C(F)(F)F [CF3(CF2)3COONH4, ammonium perfluoropentanoate] | 82 g/L | 2
N.O=C(O)C(F)(F)C(F)(F)C(F)(F)C(F)(F)C(F)(F)F [CF3(CF2)4COONH4, ammonium perfluorohexanoate] | 56 g/L | 2.4
N.O=C(O)C(F)(OC(F)(F)C(F)(OC(F)(F)F)C(F)(F)F)C(F)(F)F (centres unmarked) [CF3OCF(CF3)CF2OCF(CF3)COONH4, ammonium 2,3,3,3-tetrafluoro-2-[1,1,2,3,3,3-hexafluoro-2-(trifluoromethoxy)propoxy]-propanoate] | 22 g/L | 3.4
